Measurements as given in patent US7759331B2, “Pyridine-containing macroheterococylic compounds as kinase inhibitors” (Janssen Pharmaceutica NV, priority 2006, dated 2010).

Assays:
Assay in all cases: Protein kinase selectivity panel
Format in all cases: biochemical
Settings in all cases: 1.0 μM compound, 10 μM ATP
[1] = molecular target: PKCη(h) (Homo sapiens, UniProt P24723)
Outline: (§1)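 At a fixed 1.0 μM compound, activity toward peptide or protein substrates was determined with ATP at 10 μM.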

[2] = molecular target: MAPKAP-K2(h) (Homo sapiens, UniProt P49137)
Sequence of MAPKAP-K2(h) (P49137 whole entry): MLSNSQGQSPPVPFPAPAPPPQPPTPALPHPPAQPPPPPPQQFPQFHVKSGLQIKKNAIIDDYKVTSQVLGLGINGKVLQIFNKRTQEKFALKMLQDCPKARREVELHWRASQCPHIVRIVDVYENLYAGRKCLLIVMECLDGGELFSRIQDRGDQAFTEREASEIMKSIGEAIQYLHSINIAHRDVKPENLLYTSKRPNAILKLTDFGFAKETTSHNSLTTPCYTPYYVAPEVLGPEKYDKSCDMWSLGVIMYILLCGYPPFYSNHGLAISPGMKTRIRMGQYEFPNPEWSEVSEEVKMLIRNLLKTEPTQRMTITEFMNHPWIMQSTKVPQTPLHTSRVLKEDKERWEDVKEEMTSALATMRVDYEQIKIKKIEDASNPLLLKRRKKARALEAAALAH
Outline: as §1

[3] = molecular target: GSK3α(h) (Homo sapiens, UniProt P49840)
Sequence of GSK3α(h) (P49840 whole entry): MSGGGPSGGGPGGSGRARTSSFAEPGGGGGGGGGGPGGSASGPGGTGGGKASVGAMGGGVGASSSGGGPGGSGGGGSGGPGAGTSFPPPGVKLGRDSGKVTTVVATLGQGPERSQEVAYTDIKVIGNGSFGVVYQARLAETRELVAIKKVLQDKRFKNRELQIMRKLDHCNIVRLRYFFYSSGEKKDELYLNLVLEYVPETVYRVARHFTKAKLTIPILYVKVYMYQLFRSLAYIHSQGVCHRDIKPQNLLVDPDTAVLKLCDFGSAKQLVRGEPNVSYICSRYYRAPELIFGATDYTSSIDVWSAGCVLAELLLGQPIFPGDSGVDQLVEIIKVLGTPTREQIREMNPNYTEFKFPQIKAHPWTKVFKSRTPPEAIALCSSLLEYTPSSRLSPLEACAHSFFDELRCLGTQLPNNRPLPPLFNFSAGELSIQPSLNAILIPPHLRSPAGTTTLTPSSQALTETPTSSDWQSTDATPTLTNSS
Outline: as §1

[4] = molecular target: PDGFRα(h) (Homo sapiens, UniProt P16234)
Sequence of PDGFRα(h) (P16234 24-1089): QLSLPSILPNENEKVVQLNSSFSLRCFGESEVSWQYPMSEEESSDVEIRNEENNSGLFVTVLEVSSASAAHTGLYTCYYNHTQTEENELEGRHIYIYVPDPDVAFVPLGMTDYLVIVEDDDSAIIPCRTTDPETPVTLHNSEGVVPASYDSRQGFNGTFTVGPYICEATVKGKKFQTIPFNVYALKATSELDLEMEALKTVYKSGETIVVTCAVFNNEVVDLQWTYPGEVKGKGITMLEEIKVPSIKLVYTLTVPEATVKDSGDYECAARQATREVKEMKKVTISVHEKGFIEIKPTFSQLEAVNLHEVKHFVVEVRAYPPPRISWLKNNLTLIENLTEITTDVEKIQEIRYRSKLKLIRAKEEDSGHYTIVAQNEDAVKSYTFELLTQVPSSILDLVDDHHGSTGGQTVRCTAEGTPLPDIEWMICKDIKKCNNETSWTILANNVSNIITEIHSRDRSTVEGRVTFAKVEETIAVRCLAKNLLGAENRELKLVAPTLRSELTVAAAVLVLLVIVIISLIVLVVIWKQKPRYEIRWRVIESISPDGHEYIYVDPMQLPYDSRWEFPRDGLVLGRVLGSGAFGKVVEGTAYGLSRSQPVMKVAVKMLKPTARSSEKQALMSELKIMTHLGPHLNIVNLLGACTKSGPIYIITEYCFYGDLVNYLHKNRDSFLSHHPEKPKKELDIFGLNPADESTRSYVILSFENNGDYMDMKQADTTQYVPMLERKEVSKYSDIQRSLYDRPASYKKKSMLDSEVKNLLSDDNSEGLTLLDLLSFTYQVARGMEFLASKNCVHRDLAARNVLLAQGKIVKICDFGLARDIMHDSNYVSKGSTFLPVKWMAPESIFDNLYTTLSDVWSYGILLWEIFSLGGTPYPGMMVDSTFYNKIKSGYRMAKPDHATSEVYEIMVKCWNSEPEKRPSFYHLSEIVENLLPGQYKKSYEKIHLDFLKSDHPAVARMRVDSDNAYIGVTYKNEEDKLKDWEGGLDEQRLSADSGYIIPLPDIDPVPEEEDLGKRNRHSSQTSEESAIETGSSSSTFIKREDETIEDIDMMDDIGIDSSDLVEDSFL
Outline: as §1

[5] = molecular target: Arg(m) (Mus musculus, UniProt Q4JIM5)
Outline: as §1

[6] = molecular target: MAPK2(m) (Mus musculus, UniProt P63085)
Sequence of MAPK2(m) (P63085 whole entry): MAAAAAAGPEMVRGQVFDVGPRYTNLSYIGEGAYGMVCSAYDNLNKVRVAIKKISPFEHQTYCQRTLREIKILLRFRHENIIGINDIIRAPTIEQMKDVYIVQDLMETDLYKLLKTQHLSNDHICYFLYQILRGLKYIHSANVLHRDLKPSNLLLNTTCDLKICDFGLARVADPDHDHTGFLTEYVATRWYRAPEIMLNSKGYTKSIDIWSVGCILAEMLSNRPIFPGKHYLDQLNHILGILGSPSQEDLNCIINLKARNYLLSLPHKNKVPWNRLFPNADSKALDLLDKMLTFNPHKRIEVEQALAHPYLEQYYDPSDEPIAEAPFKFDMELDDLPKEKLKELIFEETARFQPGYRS
Outline: as §1

[7] = molecular target: MAPK2(h) (Homo sapiens, UniProt P28482)
Outline: as §1

[8] = molecular target: T1, EphB4(h) (Homo sapiens, UniProt P54760)
T1 sequence (P54760 16-987): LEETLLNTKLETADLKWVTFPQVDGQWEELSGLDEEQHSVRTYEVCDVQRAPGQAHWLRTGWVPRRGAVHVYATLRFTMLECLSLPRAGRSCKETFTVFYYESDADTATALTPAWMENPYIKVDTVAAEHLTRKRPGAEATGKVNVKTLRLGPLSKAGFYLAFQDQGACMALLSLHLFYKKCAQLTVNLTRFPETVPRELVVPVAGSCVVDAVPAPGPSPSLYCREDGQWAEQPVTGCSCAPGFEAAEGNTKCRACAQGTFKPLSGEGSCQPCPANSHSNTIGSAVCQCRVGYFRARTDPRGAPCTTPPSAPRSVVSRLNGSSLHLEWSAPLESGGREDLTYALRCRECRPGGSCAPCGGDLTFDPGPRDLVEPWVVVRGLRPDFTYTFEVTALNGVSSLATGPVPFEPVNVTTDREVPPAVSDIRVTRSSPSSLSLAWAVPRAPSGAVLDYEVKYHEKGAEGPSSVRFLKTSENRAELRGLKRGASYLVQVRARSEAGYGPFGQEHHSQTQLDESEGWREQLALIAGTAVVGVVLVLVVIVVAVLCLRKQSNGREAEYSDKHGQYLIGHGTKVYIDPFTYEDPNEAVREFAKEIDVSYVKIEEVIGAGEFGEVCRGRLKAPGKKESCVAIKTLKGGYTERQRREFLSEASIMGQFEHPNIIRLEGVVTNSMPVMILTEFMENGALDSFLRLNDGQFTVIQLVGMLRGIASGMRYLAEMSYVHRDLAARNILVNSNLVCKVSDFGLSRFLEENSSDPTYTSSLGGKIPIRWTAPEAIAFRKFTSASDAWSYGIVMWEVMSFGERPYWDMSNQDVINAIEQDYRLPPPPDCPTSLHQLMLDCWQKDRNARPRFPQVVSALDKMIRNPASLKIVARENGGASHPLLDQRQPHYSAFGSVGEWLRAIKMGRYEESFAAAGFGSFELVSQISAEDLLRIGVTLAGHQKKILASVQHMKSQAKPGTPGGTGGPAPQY
Outline: as §1

[9] = molecular target: CHK2(h) (Homo sapiens, UniProt O96017)
Sequence of CHK2(h) (O96017 whole entry): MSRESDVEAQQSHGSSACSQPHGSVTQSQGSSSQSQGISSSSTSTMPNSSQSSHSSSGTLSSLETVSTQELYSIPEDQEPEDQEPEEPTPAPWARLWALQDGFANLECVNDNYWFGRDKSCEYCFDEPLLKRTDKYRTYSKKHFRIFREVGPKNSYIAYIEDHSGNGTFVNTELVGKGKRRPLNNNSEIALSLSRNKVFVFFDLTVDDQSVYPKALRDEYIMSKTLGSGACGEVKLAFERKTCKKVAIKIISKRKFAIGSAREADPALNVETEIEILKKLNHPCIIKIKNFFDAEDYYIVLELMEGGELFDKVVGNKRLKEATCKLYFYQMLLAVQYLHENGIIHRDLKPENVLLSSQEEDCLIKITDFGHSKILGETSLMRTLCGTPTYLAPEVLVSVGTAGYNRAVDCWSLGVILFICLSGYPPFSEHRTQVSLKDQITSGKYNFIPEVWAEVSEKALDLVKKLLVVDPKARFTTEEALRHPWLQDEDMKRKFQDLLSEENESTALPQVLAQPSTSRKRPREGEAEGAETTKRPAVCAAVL
Outline: as §1

[10] = molecular target: Lyn(m) (Mus musculus, UniProt P25911)
Sequence of Lyn(m) (P25911 whole entry): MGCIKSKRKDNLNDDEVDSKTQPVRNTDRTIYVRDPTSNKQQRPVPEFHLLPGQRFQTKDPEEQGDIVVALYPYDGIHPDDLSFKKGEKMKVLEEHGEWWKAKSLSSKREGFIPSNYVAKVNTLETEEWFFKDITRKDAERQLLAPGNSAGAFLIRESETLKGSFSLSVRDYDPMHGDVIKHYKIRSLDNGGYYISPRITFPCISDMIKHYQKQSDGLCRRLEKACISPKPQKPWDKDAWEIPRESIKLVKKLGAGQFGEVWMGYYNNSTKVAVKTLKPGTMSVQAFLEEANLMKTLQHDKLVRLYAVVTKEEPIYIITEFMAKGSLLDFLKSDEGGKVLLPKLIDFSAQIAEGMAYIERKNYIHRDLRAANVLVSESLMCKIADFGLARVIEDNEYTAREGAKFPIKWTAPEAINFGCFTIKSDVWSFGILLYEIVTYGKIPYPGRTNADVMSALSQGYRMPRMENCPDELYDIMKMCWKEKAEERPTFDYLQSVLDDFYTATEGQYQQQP
Outline: as §1

[11] = molecular target: FGFR3(h) (Homo sapiens, UniProt P22607)
Sequence of FGFR3(h) (P22607 23-806): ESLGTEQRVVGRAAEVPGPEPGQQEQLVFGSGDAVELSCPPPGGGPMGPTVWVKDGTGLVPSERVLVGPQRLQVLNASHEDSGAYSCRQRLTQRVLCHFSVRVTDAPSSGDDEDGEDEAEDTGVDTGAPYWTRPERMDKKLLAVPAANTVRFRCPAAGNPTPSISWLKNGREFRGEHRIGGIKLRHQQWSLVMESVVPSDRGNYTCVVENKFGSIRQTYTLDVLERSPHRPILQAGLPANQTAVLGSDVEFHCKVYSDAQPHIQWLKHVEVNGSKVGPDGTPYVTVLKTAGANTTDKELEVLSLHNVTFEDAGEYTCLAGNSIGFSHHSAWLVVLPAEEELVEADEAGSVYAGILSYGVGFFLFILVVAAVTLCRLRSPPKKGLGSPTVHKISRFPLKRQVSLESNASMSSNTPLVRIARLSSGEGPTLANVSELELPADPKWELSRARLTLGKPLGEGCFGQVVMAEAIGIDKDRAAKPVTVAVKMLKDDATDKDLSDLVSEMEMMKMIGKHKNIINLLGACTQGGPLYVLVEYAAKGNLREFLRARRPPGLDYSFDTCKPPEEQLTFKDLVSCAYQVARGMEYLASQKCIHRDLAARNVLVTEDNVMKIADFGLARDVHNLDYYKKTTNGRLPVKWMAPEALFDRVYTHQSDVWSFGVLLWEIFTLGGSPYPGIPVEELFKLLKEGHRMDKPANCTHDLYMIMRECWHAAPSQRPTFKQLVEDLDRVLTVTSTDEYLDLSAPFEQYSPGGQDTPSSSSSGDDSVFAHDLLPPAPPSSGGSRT
Outline: as §1

[12] = molecular target: Lck(h) (Homo sapiens, UniProt P06239)
Sequence of Lck(h) (P06239 whole entry): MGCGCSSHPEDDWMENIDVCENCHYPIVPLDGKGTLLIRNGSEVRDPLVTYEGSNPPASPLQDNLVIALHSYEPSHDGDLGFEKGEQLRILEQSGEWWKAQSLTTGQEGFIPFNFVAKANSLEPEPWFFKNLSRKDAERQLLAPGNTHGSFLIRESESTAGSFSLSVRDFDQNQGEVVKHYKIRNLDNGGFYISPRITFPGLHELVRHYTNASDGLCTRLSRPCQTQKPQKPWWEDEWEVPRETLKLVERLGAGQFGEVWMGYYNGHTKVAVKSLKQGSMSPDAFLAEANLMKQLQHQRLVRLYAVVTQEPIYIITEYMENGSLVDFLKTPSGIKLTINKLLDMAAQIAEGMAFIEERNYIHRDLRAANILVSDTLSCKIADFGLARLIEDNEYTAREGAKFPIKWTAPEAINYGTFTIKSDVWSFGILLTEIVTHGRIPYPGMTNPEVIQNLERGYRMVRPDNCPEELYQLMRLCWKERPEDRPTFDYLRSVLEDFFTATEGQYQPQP
Outline: as §1

[13] = molecular target: SAPK2b(h) (Homo sapiens, UniProt Q15759)
Sequence of SAPK2b(h) (Q15759 whole entry): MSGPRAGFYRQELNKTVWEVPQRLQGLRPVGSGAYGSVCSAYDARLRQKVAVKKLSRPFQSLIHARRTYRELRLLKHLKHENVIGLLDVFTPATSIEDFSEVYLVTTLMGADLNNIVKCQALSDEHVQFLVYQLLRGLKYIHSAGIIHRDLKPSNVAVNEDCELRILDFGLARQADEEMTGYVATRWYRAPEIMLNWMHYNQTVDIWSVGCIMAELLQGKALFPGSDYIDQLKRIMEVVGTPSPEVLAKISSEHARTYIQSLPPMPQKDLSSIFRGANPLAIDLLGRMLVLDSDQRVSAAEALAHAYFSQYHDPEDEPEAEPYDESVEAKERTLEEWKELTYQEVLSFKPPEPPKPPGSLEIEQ
Outline: as §1

[14] = molecular target: CDK2/cyclinE(h) (Homo sapiens, UniProt P24941)
Outline: as §1

[15] = molecular target: T2, SGK(h) (Homo sapiens, UniProt O00141, S422D)
T2 sequence (O00141 60-431 S422D limits assumed): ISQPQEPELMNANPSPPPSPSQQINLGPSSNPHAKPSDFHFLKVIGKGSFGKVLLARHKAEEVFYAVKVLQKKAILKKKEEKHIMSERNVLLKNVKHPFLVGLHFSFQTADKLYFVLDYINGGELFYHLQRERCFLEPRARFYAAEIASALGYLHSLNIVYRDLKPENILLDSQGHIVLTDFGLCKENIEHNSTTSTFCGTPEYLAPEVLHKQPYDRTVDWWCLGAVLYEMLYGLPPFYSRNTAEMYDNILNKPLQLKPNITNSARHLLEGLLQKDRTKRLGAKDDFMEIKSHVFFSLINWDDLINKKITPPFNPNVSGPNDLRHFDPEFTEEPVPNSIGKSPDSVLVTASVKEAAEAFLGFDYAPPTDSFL
Outline: as §1

[16] = molecular target: TrkB(h) (Homo sapiens, UniProt Q16620)
Outline: as §1

SMILES | Activity at Protein Kinase Assays (% of control), PKCη(h) [1] | Activity at Protein Kinase Assays (% of control), MAPKAP-K2(h) [2] | Activity at Protein Kinase Assays (% of control), GSK3α(h) [3] | Activity at Protein Kinase Assays (% of control), PDGFRα(h) [4] | Activity at Protein Kinase Assays (% of control), Arg(m) [5] | Activity at Protein Kinase Assays (% of control), MAPK2(m) [6] | Activity at Protein Kinase Assays (% of control), MAPK2(h) [7] | Activity at Protein Kinase Assays (% of control), EphB4(h) [8] | Activity at Protein Kinase Assays (% of control), CHK2(h) [9] | Activity at Protein Kinase Assays (% of control), Lyn(m) [10] | Activity at Protein Kinase Assays (% of control), FGFR3(h) [11] | Activity at Protein Kinase Assays (% of control), Lck(h) [12] | Activity at Protein Kinase Assays (% of control), SAPK2b(h) [13] | Activity at Protein Kinase Assays (% of control), CDK2/cyclinE(h) [14] | Activity at Protein Kinase Assays (% of control), SGK(h) [15] | Activity at Protein Kinase Assays (% of control), TrkB(h) [16]
CN(C)c1nc2ccc1CCCCn1cc(c3ccccc31)C1=C(C(=O)NC1=O)c1cn(c3ccccc13)CCC2 [Cpd 1, 31-(dimethylamino)-5,15,25,32-tetraazaheptacyclo[28.2.2.1^5,12.1^18,25.0^6,11.0^13,17.0^19,24]hexatriaconta-1(32),6,8,10,12(36),13(17),18(35),19,21,23,30,33-dodecaene-14,16-dione] | 85 % of control | 98 % of control | 4 % of control | 107 % of control | 113 % of control | 95 % of control | 102 % of control | 89 % of control | 91 % of control | 90 % of control | 75 % of control | 96 % of control | 104 % of control | 54 % of control | 93 % of control | –
CN(C)c1cc2cc(n1)CCCn1cc(c3ccccc31)C1=C(C(=O)NC1=O)c1cn(c3ccccc13)CCC2 [Cpd 2, 20-(dimethylamino)-4,14,19,26-tetraazaheptacyclo[24.6.1.1^7,14.1^18,22.0^2,6.0^8,13.0^27,32]pentatriaconta-1(33),2(6),7(35),8,10,12,18(34),19,21,27,29,31-dodecaene-3,5-dione] | 109 % of control | 101 % of control | 3 % of control | 119 % of control | 129 % of control | 95 % of control | 104 % of control | 103 % of control | 94 % of control | 102 % of control | 84 % of control | 100 % of control | 119 % of control | 84 % of control | 105 % of control | 98 % of control
O=C1NC(=O)C2=C1c1cn(c3ccccc13)CCCc1cc(nc(N3CCCC3)c1)CCCn1cc2c2ccccc21 [Cpd 6, 20-pyrrolidin-1-yl-4,14,19,26-tetraazaheptacyclo[24.6.1.1^7,14.1^18,22.0^2,6.0^8,13.0^27,32]pentatriaconta-1(33),2(6),7(35),8,10,12,18(34),19,21,27,29,31-dodecaene-3,5-dione] | 102 % of control | 108 % of control | 4 % of control | 126 % of control | 121 % of control | 103 % of control | 92 % of control | 109 % of control | 84 % of control | 99 % of control | 114 % of control | 99 % of control | 114 % of control | 88 % of control | 109 % of control | 105 % of control
O=C1NC(=O)C2=C1c1cn(c3ccccc13)CCCc1ccc(c(N3CCCC3)n1)CCCn1cc2c2ccccc21 [Cpd 7, 31-pyrrolidin-1-yl-5,15,25,30-tetraazaheptacyclo[27.2.2.1^5,12.1^18,25.0^6,11.0^13,17.0^19,24]pentatriaconta-1(31),6,8,10,12(35),13(17),18(34),19,21,23,29,32-dodecaene-14,16-dione] | 97 % of control | 95 % of control | 9 % of control | 113 % of control | 130 % of control | 99 % of control | 88 % of control | 100 % of control | 91 % of control | 104 % of control | 117 % of control | 90 % of control | 99 % of control | 88 % of control | 93 % of control | 106 % of control
